Reference: ChEMBL document CHEMBL1136896, “Synthesis and biological evaluation of arylhydrazinocyanoacrylates and N-aryl pyrazolecarboxylates” (2009)

Legend:
Format in all cases: functional
[1] = system: Brassica napus; assay: Herbicidal activity against Brassica napus at 1.5 kg/hectare administered postemergence of first true leaf measured after 10 days; details: post-emergence, 240 h
[2] = system: Amaranthus retroflexus; assay: Herbicidal activity against Amaranthus retroflexus at 1.5 kg/hectare administered postemergence of first true leaf measured after 10 days; details: post-emergence, 240 h
[3] = system: Medicago sativa; assay: Herbicidal activity against Medicago sativa at 1.5 kg/hectare administered postemergence of first true leaf measured after 10 days; details: post-emergence, 240 h
[4] = system: Digitaria sanguinalis; assay: Herbicidal activity against Digitaria sanguinalis at 1.5 kg/hectare administered postemergence of first true leaf measured after 10 days; details: post-emergence, 240 h
[5] = system: Amaranthus retroflexus; assay: Herbicidal activity against Amaranthus retroflexus at 1.5 kg/hectare administered preemergence of first true leaf measured after 10 days; details: pre-emergence, 240 h
[6] = system: Medicago sativa; assay: Herbicidal activity against Medicago sativa at 1.5 kg/hectare administered preemergence of first true leaf measured after 10 days; details: pre-emergence, 240 h
[7] = system: Digitaria sanguinalis; assay: Herbicidal activity against Digitaria sanguinalis (L.) Scop. at 1.5 kg/hectare administered preemergence of first true leaf measured after 10 days; details: pre-emergence, 240 h
[8] = system: Fusarium graminearum; assay: Fungicidal activity against Gibberella zeae assessed as inhibition of mycelium growth at 50 mg/L after 72 hrs
[9] = system: Alternaria solani; assay: Fungicidal activity against Alternaria solani assessed as inhibition of mycelium growth at 50 mg/L after 72 hrs
[10] = system: Mycosphaerella arachidis; assay: Fungicidal activity against Cercospora arachidicola assessed as inhibition of mycelium growth at 50 mg/L after 72 hrs
[11] = system: Botryosphaeria berengeriana; assay: Fungicidal activity against Physalospora pyricola assessed as inhibition of mycelium growth at 50 mg/L after 72 hrs
[12] = system: Cladosporium cucumerinum; assay: Fungicidal activity against Cladosporium cucumerinum assessed as inhibition of mycelium growth at 50 mg/L after 72 hrs
[13] = system: Cucumis sativus; assay: Growth regulatory activity in cucumber assessed as root growth at 10 mg/L incubated in dark for 5 days
[14] = system: HL-60; assay: Antitumor activity against human HL60 cells at 1000 uM/L after 72 hrs by MTT assay; details: HL-60, 72 h
[15] = system: HL-60; assay: Antitumor activity against human HL60 cells at 100 uM/L after 72 hrs by MTT assay; details: HL-60, 72 h
[16] = system: HL-60; assay: Antitumor activity against human HL60 cells at 10 uM/L after 72 hrs by MTT assay; details: HL-60, 72 h
[17] = system: HL-60; assay: Antitumor activity against human HL60 cells at 1 uM/L after 72 hrs by MTT assay; details: HL-60, 72 h
[18] = system: Bel-7402; assay: Antitumor activity against human Bel7402 cells at 1000 uM/L after 72 hrs by MTT assay; details: Bel-7402, 72 h
[19] = system: Bel-7402; assay: Antitumor activity against human Bel7402 cells at 100 uM/L after 72 hrs by MTT assay; details: Bel-7402, 72 h
[20] = system: Bel-7402; assay: Antitumor activity against human Bel7402 cells at 10 uM/L after 72 hrs by MTT assay; details: Bel-7402, 72 h
[21] = system: Bel-7402; assay: Antitumor activity against human Bel7402 cells at 1 uM/L after 72 hrs by MTT assay; details: Bel-7402, 72 h
[22] = system: Brassica napus; assay: Herbicidal activity against Brassica napus L. at 1.5 kg/hectare administered preemergence of first true leaf measured after 10 days; details: pre-emergence, 240 h

Structure (SMILES)	inhibition at 1500 g/ha [1]	inhibition at 1500 g/ha [2]	inhibition at 1500 g/ha [3]	inhibition at 1500 g/ha [4]	inhibition at 1500 g/ha [5]	inhibition at 1500 g/ha [6]	inhibition at 1500 g/ha [7]	inhibition at 50 µg/mL [8]	inhibition at 50 µg/mL [9]	inhibition at 50 µg/mL [10]	inhibition at 50 µg/mL [11]	inhibition at 50 µg/mL [12]	Activity [13]	inhibition at 1000 µM [14]	inhibition at 100 µM [15]	inhibition at 10 µM [16]	inhibition at 1 µM [17]	inhibition at 1000 µM [18]	inhibition at 100 µM [19]	inhibition at 10 µM [20]	further results
CCOCCOC(=O)/C(C#N)=C(\NNc1ccc(Cl)cc1Cl)C(C)C	1.6%	3.9%	7.5%	17.9%	0%	0%	3.8%	4.8%	40%	51.5%	73.3%	22.2%	-27.8%	73.2%	17.6%	6%	0%	45.9%	6.5%	4.3%	inhibition at 1 µM [21]: 5.3%; inhibition at 1500 g/ha [22]: 0%
CCOCCOC(=O)/C(C#N)=C(/CC)NNc1ccc(Cl)cc1Cl	0%	18%	0%	0%	0%	0%	0%	28.6%	40%	51.5%	76%	38.9%	-5.2%	57.2%	0%	0%	0%	0%	0%	0%	inhibition at 1 µM [21]: 0%; inhibition at 1500 g/ha [22]: 0%
CCOCCOC(=O)/C(C#N)=C(\NNc1c(Cl)cccc1Cl)C(C)C	2.3%	15.6%	1.4%	0%	0%	0%	0%	4.8%	10%	0%	10.7%	0%	-6%	73.4%	21.4%	7.7%	0%	45.1%	17.3%	9.5%	inhibition at 1 µM [21]: 7.6%; inhibition at 1500 g/ha [22]: 9.9%
CCOCCOC(=O)/C(C#N)=C(\NNc1cc(Cl)c(Cl)cc1Cl)C(C)C	5%	20.3%	3.7%	0%	5.9%	0%	0%	14.4%	10%	18.2%	26.7%	16.7%	-1.5%	81.1%	1.5%	23.4%	7.1%	96.9%	0%	0%	inhibition at 1 µM [21]: 0%; inhibition at 1500 g/ha [22]: 0%
CCOCCOC(=O)c1c(SC)nn(-c2ccc(C)cc2C)c1N	24.1%	0%	0%	0%	0%	0%	0%	46.7%	8%	35.3%	9.3%	10.9%	42.2%	43.5%	49.9%	21%	9.4%	32.9%	0%	0%	inhibition at 1 µM [21]: 0%; inhibition at 1500 g/ha [22]: 0%
CCOCCOC(=O)/C(C#N)=C(/CC)NNc1cccc(Cl)c1Cl	4.3%	15.6%	3.3%	5.4%	5.9%	0%	0%	14.4%	20%	24.2%	65.3%	13.9%	-12.7%	69.4%	50%	26.8%	21.2%	55.3%	24.9%	12.1%	inhibition at 1 µM [21]: 11.6%; inhibition at 1500 g/ha [22]: 0%
CCOCCOC(=O)c1c(SC)nn(-c2ccccc2)c1N	53.6%	32%	38.3%	0%	10%	0%	0%	42.2%	8%	41.2%	0%	12.7%	50.4%	10.6%	0.6%	6.8%	4.3%	49%	0%	0%	inhibition at 1 µM [21]: 0%; inhibition at 1500 g/ha [22]: 0%
CCOCCOC(=O)/C(C#N)=C(\NNc1c(Cl)cc(Cl)cc1Cl)C(C)C	0%	13.3%	21%	17.9%	0%	0%	0%	4.8%	10%	18.2%	6.7%	8.3%	-2.2%	80.3%	20.8%	0%	0%	84.3%	9%	12.7%	inhibition at 1 µM [21]: 5.2%; inhibition at 1500 g/ha [22]: 0%
